According to ChEMBL document CHEMBL2311316, “Synthesis and biological evaluation of ¹⁸F labeled fluoro-oligo-ethoxylated 4-benzylpiperazine derivatives for sigma-1 receptor imaging” (Bioorg Med Chem, 2013):

How the values were obtained:
[1] = Displacement of [3H]ditolyguanidine from sigma2 receptor in rat liver membranes; format: cell membranes, Membrane
Rattus norvegicus = species on record: Rattus norvegicus; assay: Selectivity index, ratio of Ki for sigma2 receptor in rat liver membranes to Ki for sigma1 receptor in rat brain membranes; format: cell membranes
[2] = molecular target: Sigma non-opioid intracellular receptor 1 (Rattus norvegicus, UniProt Q9R0C9); assay: Displacement of (+)-[3H]pentazocine from sigma1 receptor in rat brain membranes; format: cell membranes
Sequence of Sigma non-opioid intracellular receptor 1 (Q9R0C9 whole entry): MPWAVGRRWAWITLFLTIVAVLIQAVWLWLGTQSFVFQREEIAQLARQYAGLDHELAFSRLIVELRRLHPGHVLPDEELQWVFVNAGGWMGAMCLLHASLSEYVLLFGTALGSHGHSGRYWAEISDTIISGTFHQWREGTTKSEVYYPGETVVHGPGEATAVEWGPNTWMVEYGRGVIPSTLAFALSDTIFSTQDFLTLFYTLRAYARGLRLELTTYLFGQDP

[3] = molecular target: T1, Vesicular acetylcholine transporter (Homo sapiens, UniProt Q16572); assay: Binding affinity to VAChT (unknown origin)
T1 sequence (Q16572 whole entry): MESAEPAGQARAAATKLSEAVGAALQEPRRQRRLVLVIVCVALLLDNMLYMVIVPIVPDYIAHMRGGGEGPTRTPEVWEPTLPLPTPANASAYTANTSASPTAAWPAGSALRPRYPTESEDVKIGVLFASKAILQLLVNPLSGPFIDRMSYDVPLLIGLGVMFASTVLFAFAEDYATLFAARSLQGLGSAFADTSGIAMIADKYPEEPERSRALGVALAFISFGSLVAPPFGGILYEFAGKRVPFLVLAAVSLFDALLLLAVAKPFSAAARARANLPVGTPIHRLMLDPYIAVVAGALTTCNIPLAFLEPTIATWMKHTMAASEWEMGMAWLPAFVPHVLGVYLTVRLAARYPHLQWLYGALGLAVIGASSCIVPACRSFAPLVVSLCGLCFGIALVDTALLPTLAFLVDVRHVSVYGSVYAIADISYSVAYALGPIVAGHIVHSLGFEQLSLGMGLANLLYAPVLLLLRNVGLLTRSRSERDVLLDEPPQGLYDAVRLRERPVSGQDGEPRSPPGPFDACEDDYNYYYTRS

Brain = assay: Specific drug uptake in ICR mouse brain at 4 uCi, iv measured 60 mins post dose; format: ADME, organism-based; conditions: in vivo, 1 h

Ki [1] | Ratio Ki (Rattus norvegicus) | Ki [2] | Structure (SMILES) | Ki [3] | Drug uptake (Brain)
0.666 µM | 16.4 | 0.0407 µM | FCCOCCOc1ccc(CN2CCN(Cc3ccc4c(c3)OCO4)CC2)cc1 |  | 
1.42 µM | 2.81 | 0.505 µM | FCCOCCOCCOc1ccc(CN2CCN(Cc3ccc4c(c3)OCO4)CC2)cc1 |  | 
0.291 µM | 157 | 0.00185 µM | FCCOc1ccc(CN2CCN(Cc3ccc4c(c3)OCO4)CC2)cc1 |  | 

Further lines, the compound ahead of its results:

Structure (SMILES) | Ki [1] | Ratio Ki (Rattus norvegicus) | Ki [2] | Ki [3] | Drug uptake (Brain)
[17F]CCC1OC2(CCN(Cc3ccccc3)CC2)c2ccccc21 (configuration not stated) [[18F]FLUSPIDINE] |  |  |  | 0.211 µM | 62%
O=C(CCCN1CCC(O)(c2ccc(Cl)cc2)CC1)c1ccc(F)cc1 [HALOPERIDOL] | 0.0207 µM |  |  |  | 
